Several values for one entry are separate records, joined by “and”; a condition that tells them apart may be missing. Identical values can stand only once. Like-named read-outs stand apart in the source and are kept apart here. Values belong to the molecule of their own block, whether it stands above or below them.
Legend:
[1] = biological target: T1, human α1H containing calcium channels expressed in HEK293 cells (Homo sapiens, UniProt O95180); test: Whole-cell patch clamp of HEK293 cells transiently expressing the α1H subunit; format: cell-based
T1 construct: expressed in transfected cells; host or cells: HEK293 (transient, calcium phosphate; pCMVCD4 co-transfected as marker)

[2] = system: T-type current in hippocampal neurons; conditions: 300 µM; cited from earlier work
[3] = biological target: T2, human α1H channels expressed in Xenopus oöcytes (Homo sapiens, UniProt O95180); format: cell-based; conditions: for IC50: Ba^2+ currents (15 mM Ba^2+)
T2 construct: Construction of a full-length α1H-1-encoding DNA clone; expressed in transfected cells; host or cells: Xenopus laevis oöcytes injected with in vitro transcripts

[4] = system: T-type current in neuroblastoma cells; conditions: cited from earlier work
[5] = biological target: human neuronal calcium channel α1D and α2 subunits (Homo sapiens, UniProt Q01668); test: Two-electrode voltage clamp of oöcytes injected with α1D and α2 transcripts; conditions: holding potential of -90 mV
[6] = system: human neuronal calcium channel α2 and β1 subunits; test: Two-electrode voltage clamp of oöcytes injected with α2 and β1 transcripts; conditions: n = 11
[7] = Xenopus oöcytes, concentration-inhibition curve of Ba^2+ currents

T2 sequence (O95180 whole entry): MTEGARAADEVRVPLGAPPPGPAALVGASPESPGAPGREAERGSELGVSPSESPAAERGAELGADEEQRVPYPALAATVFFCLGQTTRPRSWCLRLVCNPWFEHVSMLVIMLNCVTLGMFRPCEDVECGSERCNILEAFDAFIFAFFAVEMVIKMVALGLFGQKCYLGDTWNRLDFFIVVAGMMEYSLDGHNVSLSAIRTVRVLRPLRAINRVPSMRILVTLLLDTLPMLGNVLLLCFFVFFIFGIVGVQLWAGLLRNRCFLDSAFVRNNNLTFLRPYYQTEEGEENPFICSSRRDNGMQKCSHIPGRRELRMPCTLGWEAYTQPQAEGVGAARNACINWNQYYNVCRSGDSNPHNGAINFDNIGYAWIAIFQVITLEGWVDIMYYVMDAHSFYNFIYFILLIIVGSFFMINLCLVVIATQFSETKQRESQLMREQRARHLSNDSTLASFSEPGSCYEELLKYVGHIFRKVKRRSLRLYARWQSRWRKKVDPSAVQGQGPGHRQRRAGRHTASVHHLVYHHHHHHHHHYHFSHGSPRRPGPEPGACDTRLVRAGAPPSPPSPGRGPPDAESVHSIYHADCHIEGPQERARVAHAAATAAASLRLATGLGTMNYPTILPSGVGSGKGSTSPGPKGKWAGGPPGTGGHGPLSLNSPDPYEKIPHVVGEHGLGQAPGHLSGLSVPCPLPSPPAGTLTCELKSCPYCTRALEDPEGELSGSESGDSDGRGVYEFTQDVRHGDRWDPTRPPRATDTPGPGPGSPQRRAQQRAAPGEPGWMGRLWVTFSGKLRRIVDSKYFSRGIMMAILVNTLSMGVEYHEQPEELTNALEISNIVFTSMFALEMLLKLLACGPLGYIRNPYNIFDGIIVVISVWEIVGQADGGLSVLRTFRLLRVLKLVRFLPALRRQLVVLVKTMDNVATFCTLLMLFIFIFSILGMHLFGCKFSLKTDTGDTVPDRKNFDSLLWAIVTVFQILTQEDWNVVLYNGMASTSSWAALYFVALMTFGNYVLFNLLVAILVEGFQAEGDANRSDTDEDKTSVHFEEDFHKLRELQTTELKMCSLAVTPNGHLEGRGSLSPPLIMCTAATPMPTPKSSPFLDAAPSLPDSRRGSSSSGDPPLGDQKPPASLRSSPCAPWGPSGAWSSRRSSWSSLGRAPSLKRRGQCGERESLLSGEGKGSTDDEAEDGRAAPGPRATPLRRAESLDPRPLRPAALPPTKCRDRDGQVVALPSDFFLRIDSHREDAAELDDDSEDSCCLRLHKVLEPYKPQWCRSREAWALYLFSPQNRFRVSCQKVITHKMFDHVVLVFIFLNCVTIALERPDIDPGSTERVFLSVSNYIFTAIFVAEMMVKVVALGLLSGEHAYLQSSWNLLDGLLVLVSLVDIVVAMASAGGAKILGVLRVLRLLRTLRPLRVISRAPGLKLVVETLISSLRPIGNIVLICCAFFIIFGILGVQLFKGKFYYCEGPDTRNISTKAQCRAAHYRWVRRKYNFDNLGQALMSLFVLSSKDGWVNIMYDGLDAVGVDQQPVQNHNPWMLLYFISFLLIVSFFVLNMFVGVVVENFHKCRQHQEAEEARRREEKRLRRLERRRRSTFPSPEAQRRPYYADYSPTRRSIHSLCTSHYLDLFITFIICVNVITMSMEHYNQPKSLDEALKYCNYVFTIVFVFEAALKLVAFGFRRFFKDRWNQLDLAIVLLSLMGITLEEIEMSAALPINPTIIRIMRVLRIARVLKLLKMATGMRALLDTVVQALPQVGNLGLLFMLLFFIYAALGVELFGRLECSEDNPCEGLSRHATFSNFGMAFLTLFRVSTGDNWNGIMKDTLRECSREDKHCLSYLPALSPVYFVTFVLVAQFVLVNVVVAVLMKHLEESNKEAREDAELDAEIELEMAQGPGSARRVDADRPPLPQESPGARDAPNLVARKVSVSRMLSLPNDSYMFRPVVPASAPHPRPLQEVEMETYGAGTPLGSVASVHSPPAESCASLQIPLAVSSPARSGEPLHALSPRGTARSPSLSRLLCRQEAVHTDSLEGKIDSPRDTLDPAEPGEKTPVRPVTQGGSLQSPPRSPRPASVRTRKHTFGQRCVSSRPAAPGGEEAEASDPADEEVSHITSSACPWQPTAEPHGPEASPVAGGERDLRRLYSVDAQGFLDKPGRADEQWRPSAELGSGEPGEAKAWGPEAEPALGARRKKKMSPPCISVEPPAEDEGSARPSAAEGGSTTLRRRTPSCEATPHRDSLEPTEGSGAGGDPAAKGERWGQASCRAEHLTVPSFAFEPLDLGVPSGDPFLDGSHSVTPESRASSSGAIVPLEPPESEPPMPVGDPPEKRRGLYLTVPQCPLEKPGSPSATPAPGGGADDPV
T1 sequence (O95180 whole entry): as above
Chain of human neuronal calcium channel α1D and α2 subunits (Q01668 10-2161 limits assumed): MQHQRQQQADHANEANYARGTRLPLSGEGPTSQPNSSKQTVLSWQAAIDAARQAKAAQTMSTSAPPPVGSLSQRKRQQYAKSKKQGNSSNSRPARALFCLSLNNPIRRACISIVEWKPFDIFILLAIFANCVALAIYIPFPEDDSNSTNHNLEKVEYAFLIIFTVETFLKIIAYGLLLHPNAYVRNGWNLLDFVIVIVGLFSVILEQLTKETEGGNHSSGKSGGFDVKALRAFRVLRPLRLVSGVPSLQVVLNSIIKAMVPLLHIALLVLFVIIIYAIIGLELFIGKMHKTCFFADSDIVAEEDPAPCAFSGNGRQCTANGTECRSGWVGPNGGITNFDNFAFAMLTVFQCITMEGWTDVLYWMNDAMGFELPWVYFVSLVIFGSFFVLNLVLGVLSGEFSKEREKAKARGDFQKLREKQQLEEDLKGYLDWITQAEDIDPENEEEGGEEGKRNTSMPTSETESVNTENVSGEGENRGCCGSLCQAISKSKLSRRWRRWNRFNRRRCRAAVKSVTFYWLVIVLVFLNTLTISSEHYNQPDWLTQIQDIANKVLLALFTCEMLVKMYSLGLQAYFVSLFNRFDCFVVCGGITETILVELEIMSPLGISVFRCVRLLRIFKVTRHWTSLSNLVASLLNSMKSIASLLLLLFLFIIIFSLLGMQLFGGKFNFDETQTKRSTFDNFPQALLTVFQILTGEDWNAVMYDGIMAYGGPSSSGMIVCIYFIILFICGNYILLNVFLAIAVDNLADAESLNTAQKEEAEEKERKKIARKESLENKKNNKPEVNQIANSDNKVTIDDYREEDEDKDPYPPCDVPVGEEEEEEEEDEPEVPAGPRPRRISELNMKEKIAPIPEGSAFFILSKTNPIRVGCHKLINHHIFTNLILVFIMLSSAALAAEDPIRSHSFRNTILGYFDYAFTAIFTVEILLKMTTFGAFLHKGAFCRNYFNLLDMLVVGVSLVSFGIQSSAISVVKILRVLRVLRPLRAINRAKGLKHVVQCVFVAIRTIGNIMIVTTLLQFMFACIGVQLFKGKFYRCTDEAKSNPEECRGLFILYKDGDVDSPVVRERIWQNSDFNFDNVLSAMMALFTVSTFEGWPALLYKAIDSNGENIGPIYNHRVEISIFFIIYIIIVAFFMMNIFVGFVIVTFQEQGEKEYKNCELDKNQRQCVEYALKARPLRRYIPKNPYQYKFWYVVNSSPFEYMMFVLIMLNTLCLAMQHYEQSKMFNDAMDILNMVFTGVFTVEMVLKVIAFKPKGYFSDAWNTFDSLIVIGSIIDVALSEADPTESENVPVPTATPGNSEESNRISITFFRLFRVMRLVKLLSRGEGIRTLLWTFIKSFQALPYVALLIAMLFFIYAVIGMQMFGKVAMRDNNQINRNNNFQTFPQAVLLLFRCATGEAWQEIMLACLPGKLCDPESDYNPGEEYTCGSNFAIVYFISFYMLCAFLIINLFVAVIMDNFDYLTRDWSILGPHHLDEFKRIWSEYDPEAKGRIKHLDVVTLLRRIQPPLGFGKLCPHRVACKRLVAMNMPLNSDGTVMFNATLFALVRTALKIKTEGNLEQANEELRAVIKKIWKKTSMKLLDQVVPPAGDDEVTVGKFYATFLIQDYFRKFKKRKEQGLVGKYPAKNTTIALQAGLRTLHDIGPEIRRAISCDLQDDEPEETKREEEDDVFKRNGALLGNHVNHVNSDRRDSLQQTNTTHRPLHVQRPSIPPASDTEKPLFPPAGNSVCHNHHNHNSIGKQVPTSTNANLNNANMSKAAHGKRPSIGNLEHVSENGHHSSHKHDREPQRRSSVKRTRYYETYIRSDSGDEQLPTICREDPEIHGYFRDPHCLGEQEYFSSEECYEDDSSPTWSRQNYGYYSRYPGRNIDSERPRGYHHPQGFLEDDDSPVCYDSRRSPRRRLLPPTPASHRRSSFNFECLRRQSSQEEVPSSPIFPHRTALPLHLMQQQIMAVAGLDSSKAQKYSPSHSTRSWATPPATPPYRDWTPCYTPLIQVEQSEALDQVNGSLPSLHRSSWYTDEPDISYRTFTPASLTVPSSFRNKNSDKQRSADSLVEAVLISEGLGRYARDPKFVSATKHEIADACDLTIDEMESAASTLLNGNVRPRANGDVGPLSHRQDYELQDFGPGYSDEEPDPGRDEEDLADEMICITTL

inhibition at 1 µM ([1]; HEK293, read-out: % Inhibition of Control Response, 1 µM, HEK293 cells, 15 mM Ba^2+, mean ± SD(n)): 0.4 ± 0.8%
effect on α1H channels (in words) ([1]; concentration of 1 µM): little effect
effect on α1H-containing channels (in words) ([1]; concentration of 10 µM): marked inhibition
Structure (SMILES): COC(=O)C1=C(C)NC(C)=C([N+](=O)[O-])[C@H]1c1ccccc1C(F)(F)F [(-)BayK-8644]

response of barium currents (in words) [5]: little or no response
Structure (SMILES): COC(=O)C1=C(C)NC(C)=C([N+](=O)[O-])C1c1ccccc1C(F)(F)F (centres unmarked) [Bay K 8644]
sensitivity of inward barium currents (in words) [6]: insensitive

inhibition at 10 µM ([1]; HEK293, 10 µM, HEK293 cells, 15 mM Ba^2+, mean ± SD(n), read-out: % Inhibition of Control Response): 43.7 ± 4.1%
Structure (SMILES): COCCOC(=O)C1=C(C)NC(C)=C(C(=O)OC(C)C)C1c1cccc([N+](=O)[O-])c1 (centres unmarked) [Nimodipine, nimodipine]

Second part, the molecule before the results:

Structure (SMILES): N=C(N)NC(=O)c1nc(Cl)c(N)nc1N [Amiloride, amiloride]
reduction of the T-type current [2]: 40%
nH [3]: 0.62
effect on α1H-mediated currents (in words) [1]: inhibited
sensitivity of α1H-1-containing calcium channels lower when expressed in HEK293 cells than when expressed in Xenopus oöcytes [1]: about 10 fold
IC50 ([1]; HEK293 cells, charge carrier 15 mM Ba^2+, sigmoidal curve fitting): 167 µM
IC50 [4]: ~50 µM

Structure (SMILES): [Cd+2] [Cd^2+]
IC50 ([3]; Xenopus oöcytes): 8.3 µM and 10.3 µM
IC50 [1]: 104 µM
sensitivity of α1H-1-containing calcium channels lower when expressed in HEK293 cells than when expressed in Xenopus oöcytes [1]: about 10 fold

Structure (SMILES): CCC1(C)CC(=O)NC1=O (centres unmarked) [Ethosuximide, ethosuximide]
inhibition at 300 µM ([1]; HEK293, 300 µM, HEK293 cells, 15 mM Ba^2+, mean ± SD(n), read-out: % Inhibition of Control Response): 7.2 ± 1.8%
effect on α1H-mediated currents (in words) ([1]; no concentration stated): no effect

Structure (SMILES): COCC(=O)O[C@]1(CCN(C)CCCc2nc3ccccc3[nH]2)CCc2cc(F)ccc2[C@@H]1C(C)C [Mibefradil, (IS,2S)-2-[2-[[3-(1H-benzimidazol-2-yl)propyl]methyl-amino]ethyl]-6-fluoro-1-isopropyl-1,2,3,4-tetrahydronaphthalen-2-yl methoxyacetate]
nH [3, 7]: 0.71
inhibition at 1 µM ([1]; 1 µM, HEK293 cells, 15 mM Ba^2+, mean ± SD(n), read-out: % Inhibition of Control Response): 51 ± 10%
effect on α1H-mediated currents (in words) ([1]; no concentration stated): inhibited

Structure (SMILES): [Ni+2] [Ni^2+]
reversibility of antagonism ([3]; Xenopus oöcytes): largely reversible
IC50 ([3]; Xenopus oöcytes): 6.3 µM
nH [3, 7]: 0.84
IC50 [1]: 6.6 µM
effect on α1H-mediated currents (in words) [1]: inhibited
α1H-mediated currents more sensitive to Ni^2+ than to Cd^2+ [1]: 16 fold

Source: patent publication EP1042468B1
